Laboratory results: ChEMBL document CHEMBL1201862, “PubChem BioAssay data set” (2004)
Where “and” joins values, the source holds several entries; their conditions need not be identical. Equal values may be shown once.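 Grown in 96-well plates, cells were treated for 48 hours with each compound at five concentrations. Insufficient inhibition: endpoint recorded as highest concentration tested. GI50 marks 50% less growth.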 Calls of active or inactive are those of the source. No stated cut-off is given here; in the data, active = GI50 up to about 1.1 µM and inactive = higher.

Legend:
Experiment in all cases: NCI anticancer screen, dose series, 48 h
SK-MEL-28 = tested on: SK-MEL-28
NCI-H23 = tested on: NCI-H23
UACC-62 = tested on: UACC-62
COLO 205 = tested on: COLO 205
IGROV-1 = tested on: IGROV-1
K562 = tested on: K562
SW-620 = tested on: SW-620
TK-10 = tested on: TK-10
HCT-15 = tested on: HCT-15
RPMI-8226 = tested on: RPMI-8226
SF-295 = tested on: SF-295
A498 = tested on: A498
RXF 393 = tested on: RXF 393
OVCAR-8 = tested on: OVCAR-8
SK-OV-3 = tested on: SK-OV-3
LOX IMVI = tested on: LOX IMVI
UO-31 = tested on: UO-31
SR = tested on: SR

Row | Structure (SMILES) | GI50 (SK-MEL-28) | GI50 (NCI-H23) | GI50 (UACC-62) | GI50 (COLO 205) | GI50 (IGROV-1) | GI50 (K562) | GI50 (SW-620) | GI50 (TK-10) | GI50 (HCT-15) | GI50 (RPMI-8226) | GI50 (SF-295) | GI50 (A498) | GI50 (RXF 393) | GI50 (OVCAR-8) | GI50 (SK-OV-3) | GI50 (LOX IMVI) | GI50 (UO-31) | GI50 (SR)
1 | Cc1ccc(/N=N/c2c(C)nn(-c3ccccc3)c2C)c(Br)c1 | > 100 µM (inactive) | > 100 µM (inactive) | 89.9 µM (inactive) | > 100 µM (inactive) | > 100 µM (inactive) | 27.3 µM (inactive) | 70.8 µM (inactive) | > 100 µM (inactive) | 36 µM | 36 µM (inactive) | > 100 µM (inactive) | > 100 µM (inactive) | 54 µM (inactive) | > 100 µM (inactive) | > 100 µM (inactive) | 53 µM (inactive) | – | –
2 | Cc1nc2c(nc1C)C(=O)C1=C(C2=O)C2C=CC1CC2 | 18.3 µM (inactive) | 4.04 µM (inactive) | 2.86 µM (inactive) | 14.9 µM (inactive) | 2.63 µM (inactive) | 2.48 µM (inactive) | 2.74 µM (inactive) | 28.8 µM (inactive) | 15.1 µM | 2.17 µM (inactive) | 11.7 µM (inactive) | 41.9 µM (inactive) | 6.79 µM (inactive) | 3.48 µM (inactive) | 40.3 µM (inactive) | 2.21 µM (inactive) | 12.6 µM (inactive) | –
3 | CCOC(=O)C1(Cc2ccc3ccccc3c2)CCCCCN1 (stereo not given) | 23.3 µM (inactive) | 30 µM (inactive) | 46.3 µM (inactive) | 18.7 µM (inactive) | > 100 µM (inactive) | 22.8 µM (inactive) | 24.5 µM (inactive) | 54.1 µM (inactive) | 18.7 µM | 5.6 µM (inactive) | 19 µM (inactive) | – | 20.4 µM (inactive) | 39.6 µM (inactive) | 32.7 µM (inactive) | 20.1 µM (inactive) | 20.3 µM (inactive) | –
4 | Nc1ccc(C2=N/C(=C\c3cccc(N)c3)C(=O)O2)cc1 | > 100 µM (inactive) | > 100 µM (inactive) | > 100 µM (inactive) | > 100 µM (inactive) | > 100 µM (inactive) | > 100 µM (inactive) | > 100 µM (inactive) | > 100 µM (inactive) | > 100 µM | – | > 100 µM (inactive) | – | > 100 µM (inactive) | > 100 µM (inactive) | > 100 µM (inactive) | – | > 100 µM (inactive) | > 100 µM (inactive)
5 | N#C/C(=C\c1ccc(O)cc1)C(N)=O | > 100 µM (inactive) | > 100 µM (inactive) | > 100 µM (inactive) | > 100 µM (inactive) | > 100 µM (inactive) | > 100 µM (inactive) | > 100 µM (inactive) | > 100 µM (inactive) | > 100 µM | > 100 µM (inactive) | > 100 µM (inactive) | > 95.7 µM (inactive) and 57.3 µM (inactive) | 77.3 µM (inactive) | > 100 µM (inactive) | > 100 µM (inactive) | > 100 µM (inactive) | 61.5 µM (inactive) and 91.6 µM (inactive) | –
6 | Cc1cc(C(O)CCCc2ccccc2)cc(C)c1O (stereo not given) | 34.4 µM (inactive) | 39.8 µM (inactive) | 35.9 µM (inactive) | 67.6 µM (inactive) | 83.6 µM (inactive) | 28.6 µM (inactive) | 75.7 µM (inactive) | 31.6 µM (inactive) | 45.9 µM | 24.1 µM (inactive) | 28.8 µM (inactive) | 24.5 µM (inactive) | 12 µM (inactive) | 47.5 µM (inactive) | > 100 µM (inactive) | 34 µM (inactive) | 15.4 µM (inactive) | –
7 | COC(=O)C(=O)C(C#N)c1nc2ccccc2s1 (stereo not given) | > 100 µM (inactive) | > 100 µM (inactive) | > 100 µM (inactive) | > 100 µM (inactive) | > 100 µM (inactive) | 57.4 µM (inactive) | > 100 µM (inactive) | > 100 µM (inactive) | 57 µM | > 100 µM (inactive) | > 100 µM (inactive) | > 100 µM (inactive) | > 100 µM (inactive) | > 100 µM (inactive) | > 100 µM (inactive) | > 100 µM (inactive) | 39.8 µM (inactive) | –
8 | CCOC(=O)c1cn(CC)c2cc3c(cc2c1=O)SCS3 | > 100 µM (inactive) | > 100 µM (inactive) | > 100 µM (inactive) | > 100 µM (inactive) | > 100 µM (inactive) | > 100 µM (inactive) | > 100 µM (inactive) | > 100 µM (inactive) | > 100 µM | > 100 µM (inactive) | > 100 µM (inactive) | – | > 100 µM (inactive) | > 100 µM (inactive) | > 100 µM (inactive) | > 100 µM (inactive) | > 100 µM (inactive) | –
9 | CC1CN1c1c(C(=O)/C=C/c2ccc(Cl)cc2)c(-c2ccccc2)nn(C)c1=O (stereo not given) | 3.89 µM (inactive) | 2.77 µM (inactive) | 2.32 µM (inactive) | 1.96 µM (inactive) | 3.05 µM (inactive) | 2.82 µM (inactive) | 2.44 µM (inactive) | 2.92 µM (inactive) | 1.82 µM | – | 3.96 µM (inactive) | 4.08 µM (inactive) | 3.01 µM (inactive) | 2.55 µM (inactive) | 2.59 µM (inactive) | 2.08 µM (inactive) | 6.44 µM (inactive) | –
10 | CCOC(=O)C1(C)CCCCC(=O)N1 (stereo not given) | > 100 µM (inactive) | > 100 µM (inactive) | > 100 µM (inactive) | > 100 µM (inactive) | > 100 µM (inactive) | > 100 µM (inactive) | > 100 µM (inactive) | > 100 µM (inactive) | > 100 µM | – | > 100 µM (inactive) | – | > 100 µM (inactive) | > 100 µM (inactive) | > 100 µM (inactive) | > 100 µM (inactive) | > 100 µM (inactive) | –
11 | O=C(CC(=O)C1=CNc2ccccc2S1)C(=O)Nc1ccc(Cl)cc1 | > 50 µM (inactive) | > 50 µM (inactive) | > 50 µM (inactive) | > 50 µM (inactive) | > 50 µM (inactive) | > 24.3 µM (inactive) | > 50 µM (inactive) | > 50 µM (inactive) | > 50 µM | > 50 µM (inactive) | > 50 µM (inactive) | > 50 µM (inactive) | > 50 µM (inactive) | > 50 µM (inactive) | > 50 µM (inactive) | > 50 µM (inactive) | > 50 µM (inactive) | –
12 | CCCCCCCCCCCCCCCCc1c(O)nc(NC#N)nc1C(=O)OC | > 25 µM (inactive) | > 25 µM (inactive) | – | > 25 µM (inactive) | – | > 25 µM (inactive) | > 25 µM (inactive) | > 25 µM (inactive) | > 25 µM | > 25 µM (inactive) | > 25 µM (inactive) | > 25 µM (inactive) | > 25 µM (inactive) | > 25 µM (inactive) | > 25 µM (inactive) | > 25 µM (inactive) | > 25 µM (inactive) | –
13 | c1ccc([P+](c2ccccc2)(c2ccccc2)C2Sc3ccccc3S2)cc1 | 13.6 µM (inactive) | 10.5 µM (inactive) | 13.8 µM (inactive) | 16.7 µM (inactive) | > 100 µM (inactive) | 16.9 µM (inactive) | > 100 µM (inactive) | 21 µM (inactive) | – | 16.7 µM (inactive) | 17.4 µM (inactive) | 28.1 µM (inactive) | 14.9 µM (inactive) | 15.1 µM (inactive) | 28.8 µM (inactive) | 11.4 µM (inactive) | 16.1 µM (inactive) | –
